We go through 14 molecules from US20240059698A1 (Accutar Biotechnology Inc., priority 2022, published 2024).

Common to all, as to assay type: cell-based
Test [1] has as its system HCC827-YVMA cells (human ERBB2 exon20 insertion mutant A775_G776ins YVMA). In words: Cell growth inhibition (CellTiter-Glo), HCC827-YVMA. As to conditions: 72 h, read-out: Cell growth inhibition, GI50 (nM) HCC827-YVMA. Summed up: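 Growth in RPMI with 10% FBS was measured by CellTiter-Glo luminescence after 3 days at 37 °C with test compounds across a concentration range. The single-clone HCC827 lines carry a lentiviral YVMA (ERBB2) or ASV (EGFR) exon 20 insertion, with endogenous EGFR removed via sgRNA/Cas9.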

The next test concerns A431 cells. In words: Cell growth inhibition (CellTiter-Glo), A431. As to conditions: Homo sapiens, A-431, 72 h, 3 days. As to the method:
2. Cell Growth Inhibition for HCC827, HCC827-SVD, HCC827-ASV, HCC827-YVMA, and A431.
HCC827(ATCC), HCC827-SVD, HCC827-ASV, and HCC827-YVMA cells were seeded in 96-well plates at 5000 cells/well in 90 μL of RPMI growth medium containing 10% FBS and 1% Penicillin Streptomycin. A431 (ATCC) cells were seeded in 96-well plates at 5000 cells/well in 90 μL of DMEM growth medium containing 10% FBS and 1% Penicillin Streptomycin. Cells were incubated at 37° C. overnight and then administered with 10 μL 10× test compounds prepared in the growth medium at various concentrations. After administration of the compounds, cells were incubated at 37° C. for 3 days. Before the CellTiter-Glo assay, the plates were equilibrated at room temperature for approximately 30 minutes. 100 ul of CellTiter-Glo reagent (Promega) was added to each well. The plates were then incubated at room temperature for 10 minutes and luminescence was recorded by the EnSight® multimode plate reader (PerkinElmer). Table 7 listed selected compounds in cellular growth assay.

In a further test the test system is HCC827 cells. In words: Cell growth inhibition (CellTiter-Glo), HCC827. As to conditions: Homo sapiens, 72 h, 3 days. The procedure, abridged: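 Readout was CellTiter-Glo luminescence after 3-day compound treatment at 37° C. Cells were seeded at 5000/well the previous night: HCC827 in RPMI/10% FBS, A431 in DMEM/10% FBS.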
The test system of test [2] is HCC827-SVD cells (human EGFR exon 20 insertion mutant D770_N771insSVD). As to the kind of experiment: Cell growth inhibition (CellTiter-Glo), HCC827-SVD. The following applies: 72 h, 3 days. Summed up: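 Growth read by CellTiter-Glo luminescence after 3-day compound exposure at 37 °C. Engineered clonal HCC827 line (native EGFR deleted by CRISPR, mutant EGFR re-expressed) plated at 5000 cells/well in 10% FBS RPMI the night before dosing.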

Where [3] appears, read: HCC827-YVMA cells, 3 days, CellTiter-Glo.

Read-outs that look alike come from different tables or passages of the source.

With `C=CC(=O)N1CCC(c2n[nH]c3ncnc(Nc4ccc(Oc5ccnc(-c6csc(C)n6)c5)cc4F)c23)CC1` [Compound 171, 1-(4-(4-((2-fluoro-4-((2-(2-methylthiazol-4-yl)pyridin-4-yl)oxy)phenyl)amino)-1H-pyrazolo[3,4-d]pyrimidin-3-yl)piperidin-1-yl)prop-2-en-1-one], the GI50 in test [1] was < 50 nM; in the test with A431 cells it was > 1000 nM; in the test with HCC827 cells, 200 to 1000 nM; in test [2] it was 50 to 200 nM.
Turning to `C=CC(=O)N1CCC(c2n[nH]c3ncnc(Nc4ccc(Oc5ccnc(N6CCO[C@H](C)C6)c5)cc4F)c23)CC1` [Compound 172, (R)-1-(4-(4-((2-fluoro-4-((2-(2-methylmorpholino)pyridin-4-yl)oxy)phenyl)amino)-1H-pyrazolo[3,4-d]pyrimidin-3-yl)piperidin-1-yl)prop-2-en-1-one], the GI50 in test [1] (setting [3]) was 50 to 200 nM; in the test on A431 cells, > 1000 nM; in the test on HCC827 cells, 200 to 1000 nM; in test [2] it was 50 to 200 nM.
As for `C=CC(=O)N1CCC(c2n[nH]c3ncnc(Nc4ccc(Oc5ccnc(NC6CCOCC6)c5)cc4F)c23)CC1` [Compound 174, 1-(4-(4-((2-fluoro-4-((2-((tetrahydro-2H-pyran-4-yl)amino)pyridin-4-yl)oxy)phenyl)amino)-1H-pyrazolo[3,4-d]pyrimidin-3-yl)piperidin-1-yl)prop-2-en-1-one], the 50% growth inhibitory concentration (GI50) in test [1] (setting [3]) was 200 to 1000 nM; in the test with A431 cells it was > 1000 nM; with HCC827 cells, > 1000 nM; in test [2], 200 to 1000 nM.
`C=CC(=O)N1CCC(c2n[nH]c3ncnc(Nc4ccc(Oc5ccnc(N6C[C@H](OC)[C@H](OC)C6)c5)cc4F)c23)CC1` [Compound 176, 1-(4-(4-((4-((2-((3S,4R)-3,4-dimethoxypyrrolidin-1-yl)pyridin-4-yl)oxy)-2-fluorophenyl)amino)-1H-pyrazolo[3,4-d]pyrimidin-3-yl)piperidin-1-yl)prop-2-en-1-one]: the GI50 was 200 to 1000 nM in test [1] (setting [3]), > 1000 nM in the test on A431 cells, > 1000 nM in the test on HCC827 cells and 200 to 1000 nM in test [2].
`C=CC(=O)N1CCC(c2n[nH]c3ncnc(Nc4ccc(Oc5ccnc(N6CC(C)(OC)C6)c5)cc4F)c23)CC1` [Compound 178, 1-(4-(4-((2-fluoro-4-((2-(3-methoxy-3-methylazetidin-1-yl)pyridin-4-yl)oxy)phenyl)amino)-1H-pyrazolo[3,4-d]pyrimidin-3-yl)piperidin-1-yl)prop-2-en-1-one]: the GI50 in test [1] (setting [3]) was 50 to 200 nM; in the test on A431 cells it was > 1000 nM; in the test on HCC827 cells it was > 1000 nM; in test [2], 200 to 1000 nM.
Take `C=CC(=O)N1CCC(c2n[nH]c3ncnc(Nc4ccc(Oc5ccnc(N6CCC(C#N)C6)c5)cc4F)c23)CC1` (centres unmarked) [Compound 179, 1-(4-(4-((3-(1-acryloylpiperidin-4-yl)-1H-pyrazolo[3,4-d]pyrimidin-4-yl)amino)-3-fluorophenoxy)pyridin-2-yl)pyrrolidine-3-carbonitrile]: the GI50 in test [1] (setting [3]) was 200 to 1000 nM; with A431 cells, > 1000 nM; with HCC827 cells, > 1000 nM; in test [2], 200 to 1000 nM.
Turning to `C=CC(=O)N1CCC(c2n[nH]c3ncnc(Nc4ccc(Oc5ccnc(N6CC7(CCOCC7)C6)c5)cc4F)c23)CC1` [Compound 181, 1-(4-(4-((4-((2-(7-oxa-2-azaspiro[3.5]nonan-2-yl)pyridin-4-yl)oxy)-2-fluorophenyl)amino)-1H-pyrazolo[3,4-d]pyrimidin-3-yl)piperidin-1-yl)prop-2-en-1-one], the GI50 is 50 to 200 nM in test [1] (setting [3]), > 1000 nM in the test on A431 cells, > 1000 nM with HCC827 cells and 50 to 200 nM in test [2].
On to `C=CC(=O)N1CCC(c2n[nH]c3ncnc(Nc4ccc(Oc5ccnc(NC(=O)C(C)C)c5)cc4F)c23)CC1` [Compound 182, N-(4-(4-((3-(1-acryloylpiperidin-4-yl)-1H-pyrazolo[3,4-d]pyrimidin-4-yl)amino)-3-fluorophenoxy)pyridin-2-yl)isobutyramide], for which the GI50 in test [1] (setting [3]) is 50 to 200 nM; in the test on A431 cells, > 1000 nM; in the test with HCC827 cells it was > 1000 nM; in test [2] it was 50 to 200 nM.
`C=CC(=O)N1CCC(c2n[nH]c3ncnc(Nc4ccc(Oc5ccn(S(=O)(=O)C(C)C)n5)cc4F)c23)CC1` [Compound 183, 1-(4-(4-((2-fluoro-4-((1-(isopropylsulfonyl)-1H-pyrazol-3-yl)oxy)phenyl)amino)-1H-pyrazolo[3,4-d]pyrimidin-3-yl)piperidin-1-yl)prop-2-en-1-one]: the GI50 in test [1] (setting [3]) is 200 to 1000 nM; in the test with A431 cells it was > 1000 nM; in the test on HCC827 cells it was 200 to 1000 nM; in test [2], 200 to 1000 nM.
Take `C=CC(=O)N1CCC(c2n[nH]c3ncnc(Nc4ccc(Oc5ccnc(C(=O)NC)c5)cc4F)c23)CC1` [Compound 184, 4-(4-((3-(1-acryloylpiperidin-4-yl)-1H-pyrazolo[3,4-d]pyrimidin-4-yl)amino)-3-fluorophenoxy)-N-methylpicolinamide]: the GI50 in test [1] (setting [3]) is 200 to 1000 nM; in the test with A431 cells, > 1000 nM; in the test with HCC827 cells, > 1000 nM; in test [2], > 1000 nM.
Regarding `C=CC(=O)N1CCC(c2n[nH]c3ncnc(Nc4ccc(O[C@H]5CCCN(S(=O)(=O)c6cccs6)C5)cc4F)c23)CC1` [Compound 186, (S)-1-(4-(4-((2-fluoro-4-((1-(thiophen-2-ylsulfonyl)piperidin-3-yl)oxy)phenyl)amino)-1H-pyrazolo[3,4-d]pyrimidin-3-yl)piperidin-1-yl)prop-2-en-1-one], the GI50 was 50 to 200 nM in test [1] (setting [3]), > 1000 nM with A431 cells, 200 to 1000 nM in the test on HCC827 cells and 200 to 1000 nM in test [2].
`C=CC(=O)N1CCC(c2n[nH]c3ncnc(Nc4ccc(O[C@H]5CCCN(S(=O)(=O)c6ccc(OC)nc6)C5)cc4F)c23)CC1` [Compound 187, (S)-1-(4-(4-((2-fluoro-4-((1-((6-methoxypyridin-3-yl)sulfonyl)piperidin-3-yl)oxy)phenyl)amino)-1H-pyrazolo[3,4-d]pyrimidin-3-yl)piperidin-1-yl)prop-2-en-1-one]: the GI50 is 200 to 1000 nM in test [1] (setting [3]), > 1000 nM in the test on A431 cells, 200 to 1000 nM in the test with HCC827 cells and 200 to 1000 nM in test [2].
As to `C=CC(=O)N1CCC(c2n[nH]c3ncnc(Nc4ccc(Oc5nc(-c6ccc(C(F)(F)F)nc6)cs5)cc4F)c23)CC1` [Compound 188, 1-(4-(4-((2-fluoro-4-((4-(6-(trifluoromethyl)pyridin-3-yl)thiazol-2-yl)oxy)phenyl)amino)-1H-pyrazolo[3,4-d]pyrimidin-3-yl)piperidin-1-yl)prop-2-en-1-one], the GI50 in test [1] (setting [3]) was 50 to 200 nM; with A431 cells it was > 1000 nM; in the test on HCC827 cells it was 200 to 1000 nM; in test [2] it was 50 to 200 nM.
Take `C=CC(=O)N1CCC(c2n[nH]c3ncnc(Nc4ccc(Oc5nc(-c6cnc(C)c(F)c6)cs5)cc4F)c23)CC1` [Compound 190, 1-[4-[4-[2-fluoro-4-[4-(5-fluoro-6-methyl-3-pyridyl)thiazol-2-yl]oxy-anilino]-1H-pyrazolo[3,4-d]pyrimidin-3-yl]-1-piperidyl]prop-2-en-1-one]: the GI50 in test [1] (setting [3]) is 50 to 200 nM; with A431 cells, > 1000 nM; in the test with HCC827 cells, 200 to 1000 nM; in test [2], 50 to 200 nM.
